# Test results from ChEMBL document CHEMBL1201862, “PubChem BioAssay data set” (2004).
#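 Cultured in 96-well plates, cells were exposed to test compound for 48 hours across five concentrations. Here, GI50 denotes the concentration required for 50% inhibition of growth.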 Activity calls are given as the source filed them. No stated cut-off is given here; in the data, active = GI50 up to about 1.1 µM and inactive = higher.
# Key:
# Experiment in all cases: DTP human tumour cell line panel, 48 h
# [1] = tested on: UO-31
# [2] = tested on: SF-539
# [3] = tested on: NCI-H460
# [4] = tested on: HCC 2998
# [5] = tested on: COLO 205
# [6] = tested on: ACHN
# [7] = tested on: LXFL 529
# [8] = tested on: XF498
# [9] = tested on: HOP-62
# [10] = tested on: LOX IMVI
# [11] = tested on: KM12
# [12] = tested on: DMS-114
# [13] = tested on: A549
# [14] = tested on: SK-MEL-2
# [15] = tested on: TK-10
# [16] = tested on: RXF 631
# [17] = tested on: EKVX
# [18] = tested on: HOP-18
# [19] = tested on: M19-MEL
# [20] = tested on: OVCAR-5
# [21] = tested on: CCRF-CEM
# [22] = tested on: HT-29
# [23] = tested on: SNB-19
# [24] = tested on: NCI-H23
# [25] = tested on: SF-268
# [26] = tested on: SF-295
# [27] = tested on: K562
# [28] = tested on: HL-60
# [29] = tested on: UACC-257
# [30] = tested on: OVCAR-8
# [31] = tested on: SW-620
# [32] = tested on: SR
# [33] = tested on: SNB-78
# [34] = tested on: SNB-75
# [35] = tested on: M14
# [36] = tested on: U-251
# [37] = tested on: DLD-1
# [38] = tested on: IGROV-1
# [39] = tested on: SK-OV-3
# [40] = tested on: OVCAR-3
# [41] = tested on: A498
# [42] = tested on: OVCAR-4
# [43] = tested on: NCI-H522
# [44] = tested on: RXF 393
# [45] = tested on: RPMI-8226
# [46] = tested on: 786-0
# [47] = tested on: NCI-H226
# [48] = tested on: SN12C
# [49] = tested on: HOP-92
# [50] = tested on: UACC-62
# [51] = tested on: SK-MEL-5
# [52] = tested on: Malme-3M
# [53] = tested on: HCT-116
# [54] = tested on: KM-20L2
# [55] = tested on: SK-MEL-28
# [56] = tested on: CAKI-1
# [57] = tested on: DMS-273
# [58] = tested on: MOLT-4
# [59] = tested on: HCT-15
structure (smiles),measurement,setting,value
O=C1CC2CCCC23CC2(CCN13)OCCO2 (centres undefined),GI50,[1],> 100 µM (inactive)
same,GI50,[2],> 100 µM (inactive)
same,GI50,[3],> 100 µM (inactive)
same,GI50,[4],> 100 µM (inactive)
same,GI50,[5],> 100 µM (inactive)
same,GI50,[6],> 100 µM (inactive)
same,GI50,[7],> 100 µM (inactive)
same,GI50,[8],> 100 µM (inactive)
same,GI50,[9],> 100 µM (inactive)
same,GI50,[10],> 100 µM (inactive)
same,GI50,[11],> 100 µM (inactive)
same,GI50,[12],> 100 µM (inactive)
same,GI50,[13],> 100 µM (inactive)
same,GI50,[14],> 100 µM (inactive)
same,GI50,[15],> 100 µM (inactive)
same,GI50,[16],> 100 µM (inactive)
same,GI50,[17],> 100 µM (inactive)
same,GI50,[18],> 100 µM (inactive)
same,GI50,[19],> 100 µM (inactive)
same,GI50,[20],> 100 µM (inactive)
same,GI50,[21],> 100 µM (inactive)
same,GI50,[22],> 100 µM (inactive)
same,GI50,[23],> 100 µM (inactive)
same,GI50,[24],> 100 µM (inactive)
same,GI50,[25],> 100 µM (inactive)
same,GI50,[26],> 100 µM (inactive)
same,GI50,[27],> 100 µM (inactive)
same,GI50,[28],> 100 µM (inactive)
same,GI50,[29],> 100 µM (inactive)
same,GI50,[30],> 100 µM (inactive)
same,GI50,[31],> 100 µM (inactive)
same,GI50,[32],> 100 µM (inactive)
same,GI50,[33],> 100 µM (inactive)
same,GI50,[34],> 100 µM (inactive)
same,GI50,[35],> 100 µM (inactive)
same,GI50,[36],> 100 µM (inactive)
same,GI50,[37],> 100 µM (inactive)
same,GI50,[38],> 100 µM (inactive)
same,GI50,[39],> 100 µM (inactive)
same,GI50,[40],> 100 µM (inactive)
same,GI50,[41],> 100 µM (inactive)
same,GI50,[42],> 100 µM (inactive)
same,GI50,[43],> 100 µM (inactive)
same,GI50,[44],> 100 µM (inactive)
same,GI50,[45],> 100 µM (inactive)
same,GI50,[46],> 100 µM (inactive)
same,GI50,[47],> 100 µM (inactive)
same,GI50,[48],> 100 µM (inactive)
same,GI50,[49],> 100 µM (inactive)
same,GI50,[50],> 100 µM (inactive)
same,GI50,[51],> 100 µM (inactive)
same,GI50,[52],> 100 µM (inactive)
same,GI50,[53],> 100 µM (inactive)
same,GI50,[54],> 100 µM (inactive)
same,GI50,[55],> 100 µM (inactive)
same,GI50,[56],> 100 µM (inactive)
same,GI50,[57],> 100 µM (inactive)
same,GI50,[58],> 100 µM (inactive)
CC1=NN(C(=O)CC(=O)NC(=O)CC(=O)Nc2ccccc2F)C(=O)C1/N=N/c1ccc([N+](=O)[O-])cc1 (centres undefined),GI50,[1],26.7 µM (inactive)
same,GI50,[2],> 100 µM (inactive)
same,GI50,[3],37.1 µM (inactive)
same,GI50,[4],71.6 µM (inactive)
same,GI50,[5],31.2 µM (inactive)
same,GI50,[6],30.1 µM (inactive)
same,GI50,[7],37.2 µM (inactive)
same,GI50,[8],28.3 µM (inactive)
same,GI50,[9],56.5 µM (inactive)
same,GI50,[10],19.6 µM (inactive)
same,GI50,[11],56.1 µM (inactive)
same,GI50,[12],21.1 µM (inactive)
same,GI50,[13],35 µM (inactive)
same,GI50,[14],> 100 µM (inactive)
same,GI50,[15],44.1 µM (inactive)
same,GI50,[16],30.2 µM (inactive)
same,GI50,[17],35.1 µM (inactive)
same,GI50,[18],31.5 µM (inactive)
same,GI50,[19],30.3 µM (inactive)
same,GI50,[20],97.7 µM (inactive)
same,GI50,[21],33.3 µM (inactive)
same,GI50,[22],19.8 µM (inactive)
same,GI50,[23],60.1 µM (inactive)
same,GI50,[24],51.9 µM (inactive)
same,GI50,[25],82.2 µM (inactive)
same,GI50,[26],37.2 µM (inactive)
same,GI50,[27],28.1 µM (inactive)
same,GI50,[29],29.6 µM (inactive)
same,GI50,[30],47.6 µM (inactive)
same,GI50,[31],20 µM (inactive)
same,GI50,[33],> 100 µM (inactive)
same,GI50,[34],34.2 µM (inactive)
same,GI50,[35],57.4 µM (inactive)
same,GI50,[36],21.3 µM (inactive)
same,GI50,[37],42.3 µM (inactive)
same,GI50,[38],52 µM (inactive)
same,GI50,[39],45.3 µM (inactive)
same,GI50,[40],28.6 µM (inactive)
same,GI50,[41],34.3 µM (inactive)
same,GI50,[42],29.9 µM (inactive)
same,GI50,[45],22.6 µM (inactive)
same,GI50,[46],27.7 µM (inactive)
same,GI50,[47],33.1 µM (inactive)
same,GI50,[48],> 100 µM (inactive)
same,GI50,[49],51.4 µM (inactive)
same,GI50,[50],55.3 µM (inactive)
same,GI50,[59],33.7 µM
same,GI50,[51],44.4 µM (inactive)
same,GI50,[52],39 µM (inactive)
same,GI50,[53],21 µM (inactive)
same,GI50,[54],29.8 µM (inactive)
same,GI50,[55],> 100 µM (inactive)
same,GI50,[56],63.1 µM (inactive)
same,GI50,[57],39.1 µM (inactive)
same,GI50,[58],39.3 µM (inactive)
CCOC1=C2C(C)(CCC3[C@@]4(C)C=CC(=O)C(C)(C)C4CC(O)[C@@]23C)C(c2ccoc2)C1=O (some centres undefined),GI50,[1],14.5 µM (inactive)
same,GI50,[2],17.6 µM (inactive)
same,GI50,[3],13.7 µM (inactive)
same,GI50,[4],16.3 µM (inactive)
same,GI50,[5],13.1 µM (inactive)
same,GI50,[6],18.4 µM (inactive)
same,GI50,[8],> 10 µM (inactive)
same,GI50,[9],20.5 µM (inactive)
same,GI50,[10],14.9 µM (inactive)
same,GI50,[11],15.2 µM (inactive)
same,GI50,[12],15.6 µM (inactive)
same,GI50,[13],21.1 µM (inactive)
same,GI50,[14],19.2 µM (inactive)
same,GI50,[15],25.2 µM (inactive)
same,GI50,[16],17.9 µM (inactive)
same,GI50,[17],18.5 µM (inactive)
same,GI50,[18],33.7 µM (inactive)
same,GI50,[19],18.9 µM (inactive)
same,GI50,[20],19.2 µM (inactive)
same,GI50,[21],7.93 µM (inactive)
same,GI50,[22],10.9 µM (inactive)
same,GI50,[23],27.2 µM (inactive)
same,GI50,[24],13.1 µM (inactive)
same,GI50,[25],24.2 µM (inactive)
same,GI50,[26],12.8 µM (inactive)
same,GI50,[27],7.24 µM (inactive)
same,GI50,[28],14.4 µM (inactive)
same,GI50,[29],23.7 µM (inactive)
same,GI50,[30],18.3 µM (inactive)
same,GI50,[31],17.2 µM (inactive)
same,GI50,[33],38.5 µM (inactive)
same,GI50,[34],54.3 µM (inactive)
same,GI50,[35],21.8 µM (inactive)
same,GI50,[36],18 µM (inactive)
same,GI50,[37],11.4 µM (inactive)
same,GI50,[38],12.4 µM (inactive)
same,GI50,[39],26.4 µM (inactive)
same,GI50,[40],17 µM (inactive)
same,GI50,[41],17.3 µM (inactive)
same,GI50,[42],17.2 µM (inactive)
same,GI50,[44],16.1 µM (inactive)
same,GI50,[45],15.6 µM (inactive)
same,GI50,[46],15.3 µM (inactive)
same,GI50,[47],22 µM (inactive)
same,GI50,[48],25.1 µM (inactive)
same,GI50,[49],17.9 µM (inactive)
same,GI50,[50],18.7 µM (inactive)
same,GI50,[59],11.7 µM
same,GI50,[51],15.2 µM (inactive)
same,GI50,[52],> 10 µM (inactive)
same,GI50,[53],11.3 µM (inactive)
same,GI50,[54],17.1 µM (inactive)
same,GI50,[55],15.6 µM (inactive)
same,GI50,[56],20.7 µM (inactive)
same,GI50,[57],25.2 µM (inactive)
same,GI50,[58],7 µM (inactive)
